This is an account of results in patent US20240366842A1, “DECELLULARIZED TISSUE HYDROGELS” (THE UNIVERSITY OF NOTTINGHAM, priority 2021, published 2024).

Data set [1] concerns SH-SY5Y (human neuroblastoma cell line). Description: LDH cytotoxicity assay, direct testing. The data set is classed as cell-based. The settings on record: gel in contact with cell monolayer 24 hours, 1 mM in 5% v/v DMSO, 10 mM in 10% v/v DMSO. How it is done:
(§1) The cytotoxicity of PA crosslinked decellularized tissue hydrogels was assessed by an LDH assay in which hydrogels were incubated with SH-SY5Y (human neuroblastoma cell line).
(§2) Crosslinkers tested were: • PA [publicly available food supplement] • Purified oligomeric PA (OPA) [reference standard quality] • GA • GP
(§3) These were all tested in 1 and 10 mM concentrations, with the 1 mM in a solution containing 5% v/v of DMSO, and the 10 mM in a solution containing 10% v/v DMSO.
(§4) The LDH assay quantifies how many cells have died by quantifying the level of lactate that is present in the culture medium which will have been released upon cell membrane disruption during their death. The assay contains […] releases NADH which in turn can react with the dye present in the assay solutions to produce a colorimetric change. This change can be read through absorbance on a microplate spectrophotometer.
(§5) All results for the LDH have been calculated to % cytotoxicity as per the following formula recommended by the manufacturer: […]
Gels were made and crosslinked as per normal procedure and immersed in Hanks balanced salt solution (HBSS) containing 1% v/v of antibiotics and antimycotics overnight. The gels were then removed and immersed into culture media for 2 hours before placing on top of the cell monolayer and ensuring direct contact. […]

For data set [2] the test system is unchanged. Description: LDH cytotoxicity assay, indirect (extract) testing. The settings on record: media conditioned 72 hours, cells exposed 24 hours, 1 mM in 5% v/v DMSO, 10 mM in 10% v/v DMSO. The data set is classed as cell-based. How it is done: as §1, §2, §3, §4, §5
Gels were made and crosslinked as per normal procedure and immersed in culture media for 72 hours conditioning. The conditioned culture media was then filtered and placed onto cells for a period of 24 hours. Following exposure to the conditioned media, a sample of the media was removed for testing through LDH.

For the substance Triton-X-100 [5% Triton], the “LDH (% cytotoxicity relative to Triton)” value in data set [1] and in data set [2] was 100% each time.
